According to patent US20250161338A1, “Compounds for Anti-aging Intervention” (AGENCY FOR SCIENCE, TECHNOLOGY AND RESEARCH, priority 2022, published 2025):
“Also recorded” adds a separate entry of the source.

Legend:
[1] = tested on: wild-type Saccharomyces cerevisiae CEN.PK113-7D yeast strain; test: Chronological lifespan analysis in yeast (PI, outgrowth, spotting); assay type: cell-based
Description: (§1) Yeast strain was recovered from frozen glycerol stock at 30° C. on YPD agar medium. Yeast was left to propagate in SD medium overnight at 30° C. with shaking at 220 revolutions per minute (rpm). Cells propagated overnight were diluted to a starting optical density at 600 nm (OD600) of approximately 0.2 in fresh SD medium to begin the chronological lifespan (CLS) experiments.
CLS experiments were performed in 96-well plates with 200 μL yeast culture. Cellular inoculums were transferred into 96-well plates containing serially double-diluted concentrations (0 to 10 nM) of rapamycin. […] Cells were incubated at 30° C., and the growth was measured at different time points. The growth time point 72 hours was considered as Day 1 for the CLS assay. Cell survival was quantified at various age time points by three different approaches: (i) PI fluorescence-based method, (ii) outgrowth in YPD liquid medium, and (iii) spotting assay (FIG. 1).
Yeast cells (40 μL) from different age time points were transferred into a second 96-well plate (different to the 96-well plate in which the CLS analysis as outlined above was performed). Cells were washed and incubated in 100 μL 1×phosphate buffered saline (PBS) with propidium iodide (PI) (5 μg/mL) for 15 minutes in the dark. Positive and negative control samples were included for quantitative analysis. Positive control (cells boiled at 100° C. for 15 minutes) was PI-stained and processed in the same 96-well plate. Samples without PI-stained cells served as the negative control. After incubation, cells were washed and resuspended in 100 μL PBS. The fluorescence reading of the samples (excitation and emission wavelengths at 535 nm and 617 nm, respectively) and OD600 were measured with a microplate reader (BioTek, Winooski, Vermont, United States). The fluorescence intensity of each sample was normalized with OD600. The background fluorescence signal of the unstained negative sample was subtracted from the normalized fluorescence intensity of each sample. The obtained fluorescence intensity of the positive control (boiled dead cells) was considered 0% cell survival. Cell death was validated by allowing the boiled dead cells to grow in medium. Cell survival at different age time points of samples were calculated by normalizing the fluorescence intensity with positive control sample (boiled cells).
Yeast stationary culture (3 μL) of different age time points were transferred to a second 96-well plate, containing 200 μL YPD medium, and incubated for 24 hours at 30° C. Outgrowth (OD600) of aged cells was measured by the microplate reader. Quantification of cell survival for each age point was determined as relative to Day 1 (considered 100% cell survival). This quantification was performed by using the formula,
Yeast stationary culture (3 μL) of different age time points were spotted onto a YPD agar plate and incubated for 48 hours at 30° C. The outgrowth of aged cells on the YPD agar plate was photographed using the Bio-Rad GelDoc Imaging System (Bio-Rad, Hercules, California, United States).

[2] = tested on: wild-type Saccharomyces cerevisiae CEN.PK113-7D yeast strain; test: Yeast cell growth (OD600) in SD medium; assay type: cell-based; conditions: 0 to 8 mM; 24, 48 and 72 hours
Description: as §1
CLS experiments were performed in 96-well plates with 200 μL yeast culture. Cellular inoculums were transferred into 96-well plates containing serially double-diluted concentrations (0 to 10 nM) of rapamycin. Cellular inoculum was transferred into 96-well plates containing serially double-diluted concentrations (0 to 8 mM) of 2,5-anhydro-D-mannitol, D-fructose, D-mannitol, D-maltose, and D-sorbitol in SD medium. Cells were incubated at 30° C., and the growth was measured at different time points. The growth time point 72 hours was considered as Day 1 for the CLS assay. Cell survival was quantified at various age time points by three different approaches: (i) PI fluorescence-based method, (ii) outgrowth in YPD liquid medium, and (iii) spotting assay (FIG. 1).
Firstly, the effect of 2,5-AM on cell growth was determined. Yeast cells were incubated with varying concentrations of 2,5-AM in the SD medium. Cell growth was measured at different time points (24 hours, 48 hours, and 72 hours). […] Then, the survival of chronologically aged cells supplemented with different concentrations of 2,5-AM was measured using the PI fluorescence method. At each chronological age point, a 3 μL culture was transferred to a second 96-well plate containing 200 μL YPD medium. The 72-hour growth culture was considered Day 1 for the CLS analysis. The viability fraction was calculated, and a survival graph was plotted for different chronological age time points (FIG. 5). […] The survival of aged cells supplemented with 2,5-AM (4 mM and 8 mM) on Day 4 was approximately 80%. However, the survival of aged cells without 2,5-AM was approximately 50%. On Day 7, survival of 2,5-AM supplemented aged cells was approximately 75%. However, the survival of aged cells without 2,5-AM was reduced to less than 20%.
Firstly, the effect of fructose, mannitol, maltose, and sorbitol on cell growth was tested. Yeast cells were incubated with various concentrations of fructose, mannitol, maltose, and sorbitol similar to 2,5-AM in the SD medium. […] Next, the survival of chronologically aged cells on day 1, day 7, day 14, and day 21 was measured. […] Aged cells supplemented with 2,5-AM (8 mM) survived (approximately 65%) on Day 21. However, the survival of aged cells without 2,5-AM supplementation was less than 10%.

[3] = tested on: wild-type Saccharomyces cerevisiae CEN.PK113-7D yeast strain; conditions: very high concentrations (18% equivalent to 1M); by increasing osmolarity; cited from earlier work
[4] = tested on: prototrophic yeast strain (CEN.PK113-7D); test: Propidium iodide fluorescence-based CLS method in yeast (incl. high-throughput screening); assay type: cell-based, Saccharomyces cerevisiae; conditions: concentration tested 100 μM; for Yeast CLS increase: Yes/No call of the screen; for PI intensity: solvent DMSO or water, chronological age point Day 7 (72 h growth = Day 1), lower = more survival;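 on PI intensity: untreated reference is eight DMSO and water control wells per plate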
In short: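 CEN.PK113-7D aged in SD medium at 30 °C with compounds (rapamycin 0–10 nM; sugars 0–8 mM; screen at single concentrations). At each age point cells were stained with 5 μg/mL PI for 15 min; fluorescence was normalized to OD600, background-subtracted, and survival scaled against boiled-cell control.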

[5] = tested on: prototrophic yeast strain (CEN.PK113-7D); test: Yeast outgrowth in YPD liquid medium (CLS of aged cells); assay type: cell-based, Saccharomyces cerevisiae; conditions: concentration tested 100 μM; OD600 nm after 24 h in YPD at 30° C.; age point day 14
In short: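 Cultures aged at 30 °C in SD medium with double-diluted rapamycin (0–10 nM) or sugars/polyols (0–8 mM). On day 14, 3 µL of culture was transferred into 200 µL YPD and outgrowth read as OD600. Survival expressed relative to day 1 outgrowth (100%).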

[6] = tested on: human cells; test: High-throughput chemical screening using the PI method in human cells; assay type: cell-based; conditions: Day 6; library tested at 1 μM; controls ranged from 4.22 to 4.53; lower = extended CLS
Description: The stock solution of rapamycin, hemin, 5-fluorouracil, atorvastatin, and methotrexate was prepared in DMSO, followed by serial dilution to form various concentrations used in the experiment. The final DMSO concentration was kept at 0.05% in all experiments. The stock solution of 2,5-anhydro-D-mannitol was prepared in D10 medium. The chemical library used in screening were tested at 1 μM concentrations. Controls used were the same as the solvent applied, DMSO or water.
The assay was performed by preparing the cells with PI (2 μg/mL or 5 μg/mL) in a D10 medium. 200 μL culture (8×10^4 cells) was seeded per well in a 96-well plate with different concentrations of the anti-aging drug (rapamycin, 2,5-AM, plicamycin, copanlisib dihydrochloride, nedaplatin, hemin, 5-fluorouracil, methotrexate, or atorvastatin) and no treatment control (DMSO). The culture plate was kept away from light throughout the experiment and incubated at 37° C. with 5% CO2. At different age time points, reading was taken with a Synergy MX microplate reader (BioTek, Winooski, Vermont, United States) at 535 nm excitation and 617 nm emission.
The PI method was used to identify additional novel anti-aging compounds that prolong CLS. A total of 162 compounds were screened, including some FDA-approved drugs and natural products. The log10 values of the PI intensity for the various control samples ranged from 4.22 to 4.53.

[7] = 0 to 8 mM in SD medium, up to day 21

O=C(CO)[C@@H](O)[C@H](O)[C@H](O)CO [fructose, D-fructose]
effect on yeast CLS [1, 7]: did not extend the lifespan of the yeast
cell growth [2]: reached growth saturation after 24 hours

OC[C@H]1O[C@H](O[C@H]2[C@H](O)[C@@H](O)[C@H](O)O[C@@H]2CO)[C@H](O)[C@@H](O)[C@@H]1O [maltose, D-maltose]
effect on yeast CLS [1, 7]: did not extend the lifespan of the yeast
cell growth [2]: reached growth saturation after 24 hours

OC[C@@H](O)[C@@H](O)[C@H](O)[C@H](O)CO [mannitol, D-mannitol]
effect on yeast CLS [1, 7]: did not extend the lifespan of the yeast
cell growth [2]: reached growth saturation after 24 hours

OC[C@@H](O)[C@@H](O)[C@H](O)[C@@H](O)CO [sorbitol, D-sorbitol]
effect on yeast CLS [1, 7]: did not extend the lifespan of the yeast; also recorded: unable to increase the CLS
effect on yeast CLS ([1]; very high concentrations, between 0.5 and 1 M): increased the CLS of yeast
cell growth [2]: reached growth saturation after 24 hours
effect on yeast CLS (known) [3]: increase the CLS of yeast cells

Streptomycin (sulfate) [reference compound]
Yeast CLS increase [4]: No
PI intensity [4]: 60,638.5
Outgrowth [5]: 0.1

Vincristine (sulfate) [reference compound]
Yeast CLS increase [4]: No
PI intensity [4]: 62,812.1
Outgrowth [5]: 0.1

copanlisib dihydrochloride
log10 PI intensity [6]: 3.59

plicamycin
log10 PI intensity [6]: 3.91
